17 compounds from patent US20260297081A1, “COMPOUNDS AND METHODS OF TREATING CANCERS” (Cullgen Inc., priority 2023, published 2026) can be followed below.

SMILES strings stand for the structures.

The experiment has as its system MCF7 cells. Description: Anti-proliferation (viability) of MCF7 cells (Table 7, FIG. 2B). Type of experiment: cell-based. As to conditions: Homo sapiens, MCF7, MCF7 cells, 3-6 days, 10-point serial dilution; read-out: GI IC50 in MCF-7.
What is called IC50 is the concentration needed to halve the response being measured. With `CNc1ccc(C(=O)Nc2ccc(N(C)C)nn2)c(NCC2(F)CN(C(=O)CN3CCN(c4ccc(Nc5ncc6c(C)c(C(C)=O)c(=O)n(C7CCCC7)c6n5)nc4)CC3)C2)n1` [CPD-344, 2-(((1-(2-(4-(6-((6-acetyl-8-cyclopentyl-5-methyl-7-oxo-7,8-dihydropyrido[2,3-d]pyrimidin-2-yl)amino)pyridin-3-yl)piperazin-1-yl)acetyl)-3-fluoroazetidin-3-yl)methyl)amino)-N-(6-(dimethylamino)pyridazin-3-yl)-6-(methylamino)nicotinamide], the IC50 was over 100 nM.
In the case of `[2H]C([2H])([2H])Nc1ccc(C(=O)Nc2ccc(N(C)C)nn2)c(NC2CCN(C(=O)CN3CCC4(CCN(c5ccc(Nc6ncc7c(C)c(C(C)=O)c(=O)n(C8CCCC8)c7n6)nc5)C4)C3)CC2)n1` (centres unmarked) [CPD-441, 2-((1-(2-(7-(6-((6-acetyl-8-cyclopentyl-5-methyl-7-oxo-7,8-dihydropyrido[2,3-d]pyrimidin-2-yl)amino)pyridin-3-yl)-2,7-diazaspiro[4.4]nonan-2-yl)acetyl)piperidin-4-yl)amino)-N-(6-(dimethylamino)pyridazin-3-yl)-6-((methyl-d3)amino)nicotinamide] it was under 50 nM; in that of `CC(=O)c1c(C)c2cnc(Nc3ccc(N4CCC(N5CC(C(=O)N6CCC(Nc7nc(NC(C)C)ccc7C(=O)Nc7ccc(N(C)C)nn7)CC6)C5)CC4)cn3)nc2n(C2CCCC2)c1=O` [CPD-390, 2-((1-(1-(1-(6-((6-acetyl-8-cyclopentyl-5-methyl-7-oxo-7,8-dihydropyrido[2,3-d]pyrimidin-2-yl)amino)pyridin-3-yl)piperidin-4-yl)azetidine-3-carbonyl)piperidin-4-yl)amino)-N-(6-(dimethylamino)pyridazin-3-yl)-6-(isopropylamino)nicotinamide], over 100 nM.
For the compound `CNc1ccc(C(=O)Nc2ccc(N(C)C)nn2)c(NC2CC3(C2)CC(C(=O)N2CC4(CCN(c5ccc(Nc6ncc7c(C)c(C(C)=O)c(=O)n(C8CCCC8)c7n6)nc5)CC4)C2)C3)n1` (centres unmarked) [CPD-363], the IC50 is over 100 nM.
In the case of `CC(=O)c1c(C)c2cnc(Nc3ccc(N4CCC5(CC4)CC(C(=O)NC4CC6(C4)CC(Nc4nc(NC(C)C)ccc4C(=O)Nc4ccc(N(C)C)nn4)C6)C5)cn3)nc2n(C2CCCC2)c1=O` (centres unmarked) [CPD-437, 7-(6-((6-acetyl-8-cyclopentyl-5-methyl-7-oxo-7,8-dihydropyrido[2,3-d]pyrimidin-2-yl)amino)pyridin-3-yl)-N-(6-((3-((6-(dimethylamino)pyridazin-3-yl)carbamoyl)-6-(isopropylamino)pyridin-2-yl)amino)spiro[3.3]heptan-2-yl)-7-azaspiro[3.5]nonane-2-carboxamide] it was over 100 nM; in that of `CC(=O)c1c(C)c2cnc(Nc3ccc(CC4CCN(CC(=O)N5CCC(Nc6nc(NC(C)C)ccc6C(=O)Nc6ccc(N(C)C)nn6)CC5)CC4)cn3)nc2n(C2CCCC2)c1=O` [CPD-386, 2-((1-(2-(4-((6-((6-acetyl-8-cyclopentyl-5-methyl-7-oxo-7,8-dihydropyrido[2,3-d]pyrimidin-2-yl)amino)pyridin-3-yl)methyl)piperidin-1-yl)acetyl)piperidin-4-yl)amino)-N-(6-(dimethylamino)pyridazin-3-yl)-6-(isopropylamino)nicotinamide], over 100 nM.
Consider `CC(=O)c1c(C)c2cnc(Nc3ccc(N4CCN(CC(=O)NCCCCCNc5nc6[nH]ccc6cc5C(=O)Nc5ccc(N(C)C)nn5)CC4)cn3)nc2n(C2CCCC2)c1=O` [CPD-251, 6-((5-(2-(4-(6-((6-acetyl-8-cyclopentyl-5-methyl-7-oxo-7,8-dihydropyrido[2,3-d]pyrimidin-2-yl)amino)pyridin-3-yl)piperazin-1-yl)acetamido)pentyl)amino)-N-(6-(dimethylamino)pyridazin-3-yl)-1H-pyrrolo[2,3-b]pyridine-5-carboxamide], for which the IC50 is over 100 nM.
With `CC(=O)c1c(C)c2cnc(Nc3ccc(N4CCN(CC(=O)N5CCC(Nc6nc(NC(C)C)ccc6C(=O)Nc6ccc(N(C)C)nn6)CC5)CC4)cn3)nc2n(C2CCCC2)c1=O` [CPD-369, 2-((1-(2-(4-(6-((6-acetyl-8-cyclopentyl-5-methyl-7-oxo-7,8-dihydropyrido[2,3-d]pyrimidin-2-yl)amino)pyridin-3-yl)piperazin-1-yl)acetyl)piperidin-4-yl)amino)-N-(6-(dimethylamino)pyridazin-3-yl)-6-(isopropylamino)nicotinamide] the figure was 50 to 100 nM; with `[2H]C([2H])([2H])Nc1ccc(C(=O)Nc2ccc(N(C)C)nn2)c(NC2CC(CNC(=O)CN3CCN(c4ccc(Nc5ncc6c(C)c(C(C)=O)c(=O)n(C7CCCC7)c6n5)nc4)CC3)C2)n1` (centres unmarked) [CPD-343, 2-((3-((2-(4-(6-((6-acetyl-8-cyclopentyl-5-methyl-7-oxo-7,8-dihydropyrido[2,3-d]pyrimidin-2-yl)amino)pyridin-3-yl)piperazin-1-yl)acetamido)methyl)cyclobutyl)amino)-N-(6-(dimethylamino)pyridazin-3-yl)-6-((methyl-d3)amino)nicotinamide], 50 to 100 nM.
Consider `CNc1ccc(C(=O)Nc2ccc(N(C)C)nn2)c(NC2CC3(C2)CN(C(=O)C2CN(C4CCN(c5ccc(Nc6ncc7c(C)c(C(C)=O)c(=O)n(C8CCCC8)c7n6)nc5)CC4)C2)C3)n1` [CPD-364, 2-((2-(1-(1-(6-((6-acetyl-8-cyclopentyl-5-methyl-7-oxo-7,8-dihydropyrido[2,3-d]pyrimidin-2-yl)amino)pyridin-3-yl)piperidin-4-yl)azetidine-3-carbonyl)-2-azaspiro[3.3]heptan-6-yl)amino)-N-(6-(dimethylamino)pyridazin-3-yl)-6-(methylamino)nicotinamide], for which the IC50 was over 100 nM.
With `CC(=O)c1c(C)c2cnc(Nc3ccc(N4CCN(CC(=O)NC5CC6(C5)CC(Nc5nc(C(C)O)ccc5C(=O)Nc5cn(C)c(C7CC7)n5)C6)CC4)cn3)nc2n(C2CCCC2)c1=O` (centres unmarked) [CPD-349, 2-((6-(2-(4-(6-((6-acetyl-8-cyclopentyl-5-methyl-7-oxo-7,8-dihydropyrido[2,3-d]pyrimidin-2-yl)amino)pyridin-3-yl)piperazin-1-yl)acetamido)spiro[3.3]heptan-2-yl)amino)-N-(2-cyclopropyl-1-methyl-1H-imidazol-4-yl)-6-(1-hydroxyethyl)nicotinamide] the figure was over 100 nM; with `CC(=O)c1c(C)c2cnc(Nc3ccc(N4CCC(NCC(=O)NC5CC(Nc6nc(NC(C)C)ccc6C(=O)Nc6ccc(N(C)C)nn6)C5)CC4)cn3)nc2n(C2CCCC2)c1=O` (centres unmarked) [CPD-382, 2-((3-(2-((1-(6-((6-acetyl-8-cyclopentyl-5-methyl-7-oxo-7,8-dihydropyrido[2,3-d]pyrimidin-2-yl)amino)pyridin-3-yl)piperidin-4-yl)amino)acetamido)cyclobutyl)amino)-N-(6-(dimethylamino)pyridazin-3-yl)-6-(isopropylamino)nicotinamide], 50 to 100 nM; with `CC(=O)c1c(C)c2cnc(Nc3ccc(N4CCN(CCC(=O)N5CC(Nc6nc(NC(C)C)ccc6C(=O)Nc6cn(C)c(C7CC7)n6)C5)CC4)cn3)nc2n(C2CCCC2)c1=O` [CPD-304, 2-((1-(3-(4-(6-((6-acetyl-8-cyclopentyl-5-methyl-7-oxo-7,8-dihydropyrido[2,3-d]pyrimidin-2-yl)amino)pyridin-3-yl)piperazin-1-yl)propanoyl)azetidin-3-yl)amino)-N-(2-cyclopropyl-1-methyl-1H-imidazol-4-yl)-6-(isopropylamino)nicotinamide], over 100 nM.
With `CNc1ccc(C(=O)Nc2cc(C)n(C3CC3)n2)c(NC2CC3(CC(NC(=O)CN4CCN(c5ccc(Nc6ncc7c(C)c(C(C)=O)c(=O)n(C8CCCC8)c7n6)nc5)CC4)C3)C2)n1` (centres unmarked) [CPD-315, 2-((6-(2-(4-(6-((6-acetyl-8-cyclopentyl-5-methyl-7-oxo-7,8-dihydropyrido[2,3-d]pyrimidin-2-yl)amino)pyridin-3-yl)piperazin-1-yl)acetamido)spiro[3.3]heptan-2-yl)amino)-N-(1-cyclopropyl-5-methyl-1H-pyrazol-3-yl)-6-(methylamino)nicotinamide] the figure was over 100 nM; with `[2H]C([2H])([2H])Nc1ccc(C(=O)Nc2cc(C)n(C)n2)c(NC2CC3(C2)CN(C(=O)CC(N2CCN(c4ccc(Nc5ncc6c(C)c(C(C)=O)c(=O)n(C7CCCC7)c6n5)nc4)CC2)C(F)(F)F)C3)n1` (centres unmarked) [CPD-434, 2-((2-(3-(4-(6-((6-acetyl-8-cyclopentyl-5-methyl-7-oxo-7,8-dihydropyrido[2,3-d]pyrimidin-2-yl)amino)pyridin-3-yl)piperazin-1-yl)-4,4,4-trifluorobutanoyl)-2-azaspiro[3.3]heptan-6-yl)amino)-N-(1,5-dimethyl-1H-pyrazol-3-yl)-6-((methyl-d3)amino)nicotinamide], under 50 nM.
Take `CNc1ccc(C(=O)Nc2ccc(N(C)C)nn2)c(NCC23CC(NC(=O)CN4CCN(c5ccc(Nc6ncc7c(C)c(C(C)=O)c(=O)n(C8CCCC8)c7n6)nc5)CC4)(C2)C3)n1` [CPD-345, 2-(((3-(2-(4-(6-((6-acetyl-8-cyclopentyl-5-methyl-7-oxo-7,8-dihydropyrido[2,3-d]pyrimidin-2-yl)amino)pyridin-3-yl)piperazin-1-yl)acetamido)bicyclo[1.1.1]pentan-1-yl)methyl)amino)-N-(6-(dimethylamino)pyridazin-3-yl)-6-(methylamino)nicotinamide]: the IC50 was over 100 nM.
As to `CNc1ccc(C(=O)Nc2ccc(N(C)C)nn2)c(NC2CC3(C2)CN(C(=O)C2CC4(CCN(c5ccc(Nc6ncc7c(C)c(C(C)=O)c(=O)n(C8CCCC8)c7n6)nc5)CC4)C2)C3)n1` (centres unmarked) [CPD-325, 2-((2-(7-(6-((6-acetyl-8-cyclopentyl-5-methyl-7-oxo-7,8-dihydropyrido[2,3-d]pyrimidin-2-yl)amino)pyridin-3-yl)-7-azaspiro[3.5]nonane-2-carbonyl)-2-azaspiro[3.3]heptan-6-yl)amino)-N-(6-(dimethylamino)pyridazin-3-yl)-6-(methylamino)nicotinamide], the IC50 was over 100 nM.
